Tests used:
[1] = molecular target: T1, mouse GPR35 (Mus musculus, UniProt Q9ES90, D300Y/S286F); assay: Reactivity on FLIPR, CHO-K1 cells transfected with mouse GPR35 expression vector; format: cell-based
T1 construct: the digestion product was inserted into plasmid vector pAKKO-111H; expressed in transfected cells; host or cells: CHO-K1 cells
Method: The CHO-K1 cell line (purchased from ATCC) was incubated in HAM F-12 medium (Invitrogen) supplemented with 10% fetal calf serum, unless otherwise indicated. On the day before transfection, the cells were inoculated at 4.5×10^5/10 cm^2 and incubated at 37° C. for 15 hours or more in a CO2 incubator adjusted to 5% CO2 concentration. Using Lipofectamine reagent (Invitrogen), transfection was performed according to modifications of the procedure attached to the reagent. When a 6-well plate was used as the incubator, the transfection was performed as follows. Two tubes each having a 1.5 ml volume were prepared and 100 μl each of Opti-MEM medium (Invitrogen) was dispensed in each tube. […] The cells obtained were counted and diluted to 5×10^4 cells per 100 μl of the medium. […]
To assay the changes in intracellular calcium levels on FLIPR, the following pretreatment was made. First, an assay buffer was prepared to add fluorescence dye Fluo-3AM (DOJIN) to the cells, or to wash the cells immediately before the FLIPR assay. […] After mixing them, the mixture was added to 10.6 ml of an assay buffer supplemented with 105 μl of fetal calf serum to give a fluorescence dye solution. […]

[2] = molecular target: GPR35 (Homo sapiens, UniProt Q9HC97, S294R); assay: Changes in intracellular calcium levels on FLIPR, CHO cell line stably co-expressing human GPR35 and Gα16; format: cell-based; set-up: expressed in transfected cells
Sequence of GPR35 (Q9HC97 whole entry S294R): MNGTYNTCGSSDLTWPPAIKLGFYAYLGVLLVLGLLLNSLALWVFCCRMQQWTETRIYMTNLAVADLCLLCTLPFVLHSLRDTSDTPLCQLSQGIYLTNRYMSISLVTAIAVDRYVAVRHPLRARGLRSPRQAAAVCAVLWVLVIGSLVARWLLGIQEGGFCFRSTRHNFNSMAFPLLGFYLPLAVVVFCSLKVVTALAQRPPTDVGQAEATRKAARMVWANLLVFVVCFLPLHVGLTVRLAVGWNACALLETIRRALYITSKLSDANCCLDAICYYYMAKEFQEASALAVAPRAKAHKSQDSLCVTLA
Method: The Gα16-stably expressed cell line (Gα16/CHO cell line) as a host cell was prepared by transfecting the Gα16 expression vector (Guthrie cDNA Resource Center) into CHO cells in a conventional manner and incubating at 37° C. under 5% CO2 in αMEM medium (containing nucleic acid; Invitrogen) supplemented with 10% fetal calf serum (Invitrogen), 50 units/ml penicillin/50 ug/ml streptomycin (CAMBREX) and 1 mg/ml geneticin (Invitrogen). The cells that were incubated for 2 days in αMEM medium (containing nucleic acid) supplemented only with 10% fetal calf serum charged in a 75 cm^2 flask were used for the transfection. The transfection was carried out using Lipofectamine reagent (Invitrogen) by a modification of the protocol attached to the reagent. First, 2 centrifuge tubes each having a 15 ml volume were prepared and 600 μl each of Opti-MEM medium (Invitrogen) was dispensed in each tube. Next, 4.8 μg of the expression vector was charged in one tube and in another tube 36 μl of Lipofectamine reagent was charged, which were mixed together. The mixture was settled for 20 minutes at room temperature. […] The cells obtained were counted and diluted with αMEM medium (containing no nucleic acid; Invitrogen) supplemented only with 10% dialyzed fetal calf serum to have 0.3, 1.5 and 7.5 cells per 100 μl of the medium. […]

T1 sequence (Q9ES90 whole entry S286F/D300Y): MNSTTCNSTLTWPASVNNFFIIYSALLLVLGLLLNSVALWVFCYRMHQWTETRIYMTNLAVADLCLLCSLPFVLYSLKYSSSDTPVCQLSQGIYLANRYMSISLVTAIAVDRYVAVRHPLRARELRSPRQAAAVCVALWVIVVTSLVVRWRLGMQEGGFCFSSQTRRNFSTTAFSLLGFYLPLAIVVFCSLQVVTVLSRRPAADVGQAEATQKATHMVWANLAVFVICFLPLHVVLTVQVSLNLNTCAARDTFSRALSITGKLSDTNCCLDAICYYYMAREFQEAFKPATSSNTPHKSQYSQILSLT

O=C1N=c2cc([N+](=O)[O-])c([N+](=O)[O-])cc2=NC1=O [DNQX, 6,7-dinitroquinoxaline-2,3-dione]
reactivity of mouse GPR35 (FLIPR) [1]: responsive
intracellular calcium levels [2]: increased
